Test results published in patent publication US8871753B2, “Macrocyclic compounds and their use as kinase inhibitors” (Incyte Corporation, priority 2008, dated 2014).
Where a name gives a salt, the structure may show the parent alone. Read-outs that look alike come from different tables or passages of the source.

What was measured:
Type in all cases: biochemical
[1] = target: T1, human JAK1 (a.a. 837-1142) (Homo sapiens, UniProt P23458); assay: In vitro JAK kinase assay (HTRF, phosphorylation of a biotinylated peptide), JAK1; conditions: read-out: JAK1 IC50
T1 construct: human JAK1 (a.a. 837-1142); His tag (N); made in house; host or cells: insect cells (baculovirus)
T1 sequence (P23458 849-1154): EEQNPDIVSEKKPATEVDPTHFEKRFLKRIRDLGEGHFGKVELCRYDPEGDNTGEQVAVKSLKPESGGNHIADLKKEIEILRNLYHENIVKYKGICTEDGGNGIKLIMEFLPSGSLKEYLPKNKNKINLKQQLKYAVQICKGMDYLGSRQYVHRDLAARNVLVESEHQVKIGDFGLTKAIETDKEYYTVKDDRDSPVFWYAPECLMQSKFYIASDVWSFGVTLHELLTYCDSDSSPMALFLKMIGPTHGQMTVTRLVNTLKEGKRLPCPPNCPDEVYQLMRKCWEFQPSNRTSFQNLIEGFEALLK
Outline: (§1)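 Kinase activity was measured as phosphorylation of a biotinylated peptide, with ATP at 90 μM for JAK1, 30 μM for JAK2 and 3 μM for JAK3. Reactions ran 1 hr at room temperature, were stopped with EDTA plus SA-APC and Eu-Py20, and were read by HTRF after 40 minutes of antibody binding.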

[2] = target: T2, human JAK2 (a.a. 828-1132) (Homo sapiens, UniProt O60674); assay: In vitro JAK kinase assay (HTRF, phosphorylation of a biotinylated peptide), JAK2
T2 construct: JAK2 (a.a. 828-1132); His tag (N); made in house; host or cells: insect cells (baculovirus)
T2 sequence (O60674 828-1132): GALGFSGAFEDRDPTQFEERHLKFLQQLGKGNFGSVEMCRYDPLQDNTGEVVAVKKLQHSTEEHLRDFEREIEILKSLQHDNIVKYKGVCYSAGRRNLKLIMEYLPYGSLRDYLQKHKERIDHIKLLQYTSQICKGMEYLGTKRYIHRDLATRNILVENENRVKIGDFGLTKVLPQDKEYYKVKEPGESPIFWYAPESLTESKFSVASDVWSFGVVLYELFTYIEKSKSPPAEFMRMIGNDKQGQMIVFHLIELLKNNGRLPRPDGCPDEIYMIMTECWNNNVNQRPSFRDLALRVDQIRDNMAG
Outline: as §1

[3] = target: T3, human JAK3 (a.a. 781-1124) (Homo sapiens, UniProt P52333); assay: In vitro JAK kinase assay (HTRF, phosphorylation of a biotinylated peptide), JAK3
T3 construct: JAK3 (a.a. 781-1124); His tag (N); made in house; host or cells: insect cells (baculovirus)
T3 sequence (P52333 781-1124): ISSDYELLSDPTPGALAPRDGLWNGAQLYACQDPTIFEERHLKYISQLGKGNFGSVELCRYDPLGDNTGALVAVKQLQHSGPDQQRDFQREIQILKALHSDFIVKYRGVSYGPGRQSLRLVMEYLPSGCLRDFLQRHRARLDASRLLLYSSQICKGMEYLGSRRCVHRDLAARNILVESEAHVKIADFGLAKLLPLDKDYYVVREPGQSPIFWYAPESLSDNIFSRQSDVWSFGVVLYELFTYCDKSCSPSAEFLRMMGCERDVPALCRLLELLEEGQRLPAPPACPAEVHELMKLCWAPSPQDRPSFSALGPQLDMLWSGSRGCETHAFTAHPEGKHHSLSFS
Outline: as §1

TYK2 = TYK2 (Homo sapiens, UniProt P29597); assay: TYK2 kinase inhibition (Table A1)
Chain of TYK2 (P29597 whole entry): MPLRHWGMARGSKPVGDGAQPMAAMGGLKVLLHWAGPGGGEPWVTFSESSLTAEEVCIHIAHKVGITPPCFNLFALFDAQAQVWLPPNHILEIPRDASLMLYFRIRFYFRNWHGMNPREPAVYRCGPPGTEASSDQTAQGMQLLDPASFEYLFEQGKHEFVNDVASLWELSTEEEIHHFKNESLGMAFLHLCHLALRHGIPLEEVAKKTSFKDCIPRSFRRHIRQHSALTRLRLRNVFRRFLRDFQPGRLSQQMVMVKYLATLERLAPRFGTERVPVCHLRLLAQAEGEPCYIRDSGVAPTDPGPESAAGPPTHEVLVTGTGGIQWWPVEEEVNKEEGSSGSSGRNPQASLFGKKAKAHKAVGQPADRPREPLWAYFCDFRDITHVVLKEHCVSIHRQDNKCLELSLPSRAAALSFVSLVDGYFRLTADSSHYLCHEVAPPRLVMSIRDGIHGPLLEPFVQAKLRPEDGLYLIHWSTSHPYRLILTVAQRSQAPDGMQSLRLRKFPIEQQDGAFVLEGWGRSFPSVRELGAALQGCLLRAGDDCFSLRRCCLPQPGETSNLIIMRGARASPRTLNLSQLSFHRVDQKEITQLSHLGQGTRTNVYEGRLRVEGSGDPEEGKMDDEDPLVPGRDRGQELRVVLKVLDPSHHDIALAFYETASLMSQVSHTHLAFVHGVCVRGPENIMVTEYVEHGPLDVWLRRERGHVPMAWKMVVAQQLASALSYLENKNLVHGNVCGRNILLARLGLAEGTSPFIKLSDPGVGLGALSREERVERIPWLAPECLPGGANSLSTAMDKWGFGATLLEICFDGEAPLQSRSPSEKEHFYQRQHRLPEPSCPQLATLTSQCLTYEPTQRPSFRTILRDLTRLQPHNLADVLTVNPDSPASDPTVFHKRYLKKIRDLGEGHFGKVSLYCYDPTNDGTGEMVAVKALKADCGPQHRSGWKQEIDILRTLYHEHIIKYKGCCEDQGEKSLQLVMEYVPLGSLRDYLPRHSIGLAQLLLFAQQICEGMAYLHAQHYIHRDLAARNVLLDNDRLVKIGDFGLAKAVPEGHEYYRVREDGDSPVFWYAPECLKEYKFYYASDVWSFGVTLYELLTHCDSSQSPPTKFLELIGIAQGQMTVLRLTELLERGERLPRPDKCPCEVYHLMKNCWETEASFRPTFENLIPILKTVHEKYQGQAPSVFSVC

[4] = target: T4, Recombinant Human Anaplastic Lymphoma Kinase (Homo sapiens, UniProt Q9UM73); assay: ALK HTRF kinase assay
T4 construct: purchased Invitrogen, Carlsbad, Calif
T4 sequence (Q9UM73 19-1620): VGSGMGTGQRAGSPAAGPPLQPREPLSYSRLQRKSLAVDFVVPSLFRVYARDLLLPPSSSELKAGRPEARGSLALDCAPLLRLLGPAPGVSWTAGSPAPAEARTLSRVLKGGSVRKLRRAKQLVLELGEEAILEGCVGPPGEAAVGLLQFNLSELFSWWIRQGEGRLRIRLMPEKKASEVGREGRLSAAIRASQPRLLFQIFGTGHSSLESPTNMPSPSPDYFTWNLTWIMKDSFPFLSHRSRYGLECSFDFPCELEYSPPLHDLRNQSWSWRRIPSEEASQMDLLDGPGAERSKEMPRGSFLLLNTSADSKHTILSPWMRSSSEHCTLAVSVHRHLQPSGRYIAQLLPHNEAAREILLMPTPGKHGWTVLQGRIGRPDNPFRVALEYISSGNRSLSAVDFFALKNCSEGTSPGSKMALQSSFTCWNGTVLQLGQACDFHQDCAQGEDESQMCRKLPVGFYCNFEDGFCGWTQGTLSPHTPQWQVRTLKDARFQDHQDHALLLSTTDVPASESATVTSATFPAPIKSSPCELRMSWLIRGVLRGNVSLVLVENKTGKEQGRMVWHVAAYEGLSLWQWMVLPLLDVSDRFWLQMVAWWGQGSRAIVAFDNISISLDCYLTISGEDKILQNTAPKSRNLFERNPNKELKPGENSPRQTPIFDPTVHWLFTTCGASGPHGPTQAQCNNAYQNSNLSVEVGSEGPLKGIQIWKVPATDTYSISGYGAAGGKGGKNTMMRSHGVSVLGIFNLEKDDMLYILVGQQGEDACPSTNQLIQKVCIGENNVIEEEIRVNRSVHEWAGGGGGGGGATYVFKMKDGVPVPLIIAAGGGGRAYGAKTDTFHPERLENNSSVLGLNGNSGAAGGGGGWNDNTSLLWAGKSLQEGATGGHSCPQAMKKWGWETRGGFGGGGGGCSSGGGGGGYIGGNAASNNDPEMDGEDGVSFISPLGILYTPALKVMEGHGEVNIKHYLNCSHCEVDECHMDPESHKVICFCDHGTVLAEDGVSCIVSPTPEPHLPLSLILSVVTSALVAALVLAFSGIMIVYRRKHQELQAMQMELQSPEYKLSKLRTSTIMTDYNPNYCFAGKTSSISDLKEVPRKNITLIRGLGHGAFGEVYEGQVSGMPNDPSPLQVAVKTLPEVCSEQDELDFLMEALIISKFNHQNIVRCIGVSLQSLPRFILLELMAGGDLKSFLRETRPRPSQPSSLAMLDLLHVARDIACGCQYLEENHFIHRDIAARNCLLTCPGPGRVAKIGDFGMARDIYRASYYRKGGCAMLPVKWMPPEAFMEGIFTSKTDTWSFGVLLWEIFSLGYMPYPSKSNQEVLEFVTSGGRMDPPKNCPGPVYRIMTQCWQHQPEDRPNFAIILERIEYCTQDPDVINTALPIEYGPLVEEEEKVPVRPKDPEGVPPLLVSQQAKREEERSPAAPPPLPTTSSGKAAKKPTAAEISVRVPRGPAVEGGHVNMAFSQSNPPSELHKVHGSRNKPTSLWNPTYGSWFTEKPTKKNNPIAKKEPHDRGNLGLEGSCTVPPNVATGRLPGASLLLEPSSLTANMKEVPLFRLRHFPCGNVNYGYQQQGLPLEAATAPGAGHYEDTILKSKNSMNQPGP
Outline: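 Compounds were incubated with recombinant human ALK and a biotin-tagged peptide substrate. Product was captured with streptavidin-APC and probed with a europium anti-phosphotyrosine antibody, and plates were read for time-resolved fluorescence. Dose-response data were fitted to derive IC50.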

[5] = compound at a concentration of 500 nM or 1 mM (not specified), cells shown as percentage
[6] = method AA1 (90 μM ATP) or AA2 (1000 μM ATP), not stated per value
[7] = method AA1 (30 μM ATP) or AA2 (1000 μM ATP), not stated per value
[8] = method AA1 (3 μM ATP) or AA2 (1000 μM ATP), not stated per value
[9] = compound at 500 nM or 1 mM, 90 μM ATP

| Structure (SMILES) | IC50 ([1]; Table B1) | IC50 ([2]; Table B1) | IC50 ([3]; Table B1) | IC50 (TYK2; Table B1) | ALK % of inhibition at a concentration of 500 nM or 1 mM [4, 5] | IC50 [1, 6] | IC50 [2, 7] | IC50 [3, 8] | IC50 (TYK2) | ALK % of inhibition at a concentration of 500 nM or 1 mM [4, 9] |
| --- | --- | --- | --- | --- | --- | --- | --- | --- | --- | --- |
| Cc1oncc1C(=O)N1CCC(NC(=O)Nc2ccc3cc2CCc2cccc(c2)Nc2ncc(Cl)c(n2)N3)CC1 [Example B264, N-[6-chloro-2,4,8,22-tetraazatetracyclo[14.3.1.1(3,7).1(9,13)]docosa-1(20),3(22),4,6,9(21),10,12,16,18-nonaen-12-yl]-N′-{1-[(5-methylisoxazol-4-yl)carbonyl]piperidin-4-yl}urea trifluoroacetate] | 14 nM | 25 nM | 216 nM | 54 nM | 27% | – | – | – | – | – |
| COc1ccc(S(=O)(=O)Nc2ccc3cc2CCc2cccc(c2)Nc2ncc(Cl)c(n2)N3)cc1 [Example B156, N-[6-Chloro-2,4,8,22-tetraazatetracyclo[14.3.1.1(3,7).1(9,13)]docosa-1(20), 3(22),4,6,9(21),10,12,16,18-nonaen-12-yl]-4-methoxybenzenesulfonamide trifluoroacetate] | 0.75 nM | 1.5 nM | 17 nM | 2.7 nM | 28% | – | – | – | – | – |
| CC(=O)Nc1ccc(S(=O)(=O)Nc2ccc3cc2CCc2cccc(c2)Nc2ncc(Cl)c(n2)N3)cc1 [Example B161, N-[4-({[6-Chloro-2,4,8,22-tetraazatetracyclo[14.3.1.1(3,7).1(9,13)]docosa-1(20),3(22),4,6,9(21),10,12,16,18-nonaen-12-yl]amino}sulfonyl)phenyl]acetamide trifluoroacetate] | 1.6 nM | 1.1 nM | 8.5 nM | 2.6 nM | 58% | – | – | – | – | – |
| NS(=O)(=O)N1CC[C@@H](C(=O)Nc2ccc3cc2CCc2cccc(c2)Nc2ncc(Cl)c(n2)N3)C1 [Example A74, (3R)-1-(Aminosulfonyl)-N-[6-chloro-2,4,8,22-tetraazatetracyclo[14.3.1.1(3,7).1(9,13)]docosa-1(20),3(22),4,6,9(21),10,12,16,18-nonaen-12-yl]pyrrolidine-3-carboxamide trifluoroacetate] | – | – | – | – | – | 6 nM | 3 nM | 3.3 nM | 17 nM | 48% |
| O=C(Nc1nnn[nH]1)Nc1ccc2cc1CCc1cccc(c1)Nc1ncc(Cl)c(n1)N2 [Example B251, N-[6-Chloro-2,4,8,22-tetraazatetracyclo[14.3.1.1(3,7).1(9,13)]docosa-1(20),3(22),4,6,9(21),10,12,16,18-nonaen-12-yl]-N′-1H-tetrazol-5-ylurea trifluoroacetate] | 53 nM | 37 nM | 4.2 nM | 14 nM | 44% | – | – | – | – | – |
| Clc1cnc2nc1Nc1ccc(CN3CCNCC3)c(c1)CCc1cccc(c1)N2 [Example B224, 6-Chloro-12-(piperazin-1-ylmethyl)-2,4,8,22-tetraazatetracyclo[14.3.1.1(3,7).1(9,13)]docosa-1(20),3(22),4,6,9(21),10,12,16,18-nonaene tris(trifluoroacetate)] | 19 nM | 8.9 nM | 41 nM | 41 nM | 28% | – | – | – | – | – |
| O=C(CC1CCN(c2nncs2)CC1)Nc1ccc2cc1CCc1cccc(c1)Nc1ncc(Cl)c(n1)N2 [Example A183, N-[6-Chloro-2,4,8,22-tetraazatetracyclo[14.3.1.1(3,7).1(9,13)]docosa-1(20),3(22),4,6,9(21),10,12,16,18-nonaen-12-yl]-2-[1-(1,3,4-thiadiazol-2-yl)piperidin-4-yl]acetamide bis(trifluoroacetate)] | – | – | – | – | – | 3.6 nM | 22 nM | > 200 nM | 30 nM | 40% |
